Assay: Stress testing (accelerated test for 10 days) of the solid: crystal form B and crude product
Format: physicochemical
Details: for Purity compared with day 0 (in words): accelerated test for 10 days
Procedure: Detection instrument: Agilent 1260 series (U.S.)
Chromatographic column: Waters Sunfire C18;
Mobile phase A: water-mobile phase acetonitrile B (80:20);
Column temperature: 40° C.; Detection wavelength: 390 nm.
Detection basis: High performance liquid chromatography method, Pharmacopoeia of the People's Republic of China, Part II Appendix VD
The obtained crystal form B was subjected to stability studies (accelerated test for 10 days), to compare the data of purity, maximum single impurity and total impurities of the new crystal form under the conditions of 60° C., humidity 92.5%, and light irradiation with the data on day 0.
The crude product of (3Z,6Z)-3-[((E)-3-(5-tert-butyl)-1H-imidazolyl-4-yl)meth ylene]-6-((E)-3-(3-fluorophenyl)-2-propenylene)piperazine-2,5-dione was subjected to stability studies (accelerated test for 10 days), to compare the data of purity, maximum single impurity of the crude product stored at 40° C., 60° C. to the data on day 0.

[1] = Day 10, sample 1, no stress condition given

CC(C)(C)c1nc[nH]c1/C=c1\[nH]c(=O)/c(=C/C=C/c2cccc(F)c2)[nH]c1=O [crystal form B, (3Z,6Z)-3-[((E)-3-(5-tert-butyl)-1H-imidazolyl-4-yl)methylene]-6-((E)-3-(3-fluorophenyl)-2-propenylene)piperazine-2,5-dione]
Maximum single impurity (%) (Day 0): 0.24 (RRT: 0.95) % | Purity (%) (Day 0): 99.50% | Total impurities (%) (Day 0): 0.50% | Maximum single impurity (%) (Day 5, 60° C.): 0.24 (RRT: 0.95) % | Purity (%) (Day 5, 60° C.): 99.50% | Total impurities (%) (Day 5, 60° C.): 0.50% | Maximum single impurity (%) (Day 5, humidity 92.5%): 0.24 (RRT: 0.95) % | Purity (%) (Day 5, humidity 92.5%): 99.50% | Total impurities (%) (Day 5, humidity 92.5%): 0.50% | Maximum single impurity (%) (Day 5, light irradiation): 0.26 (RRT: 0.95) % | Purity (%) (Day 5, light irradiation): 99.40% | Total impurities (%) (Day 5, light irradiation): 0.60% | Maximum single impurity (%) (Day 10, 60° C.): 0.24 (RRT: 0.95) % | Purity (%) (Day 10, 60° C.): 99.50% | Total impurities (%) (Day 10, 60° C.): 0.50% | Maximum single impurity (%) (Day 10, humidity 92.5%): 0.24 (RRT: 0.95) % | Purity (%) (Day 10, humidity 92.5%): 99.50% | Total impurities (%) (Day 10, humidity 92.5%): 0.50% | Maximum single impurity (%) (Day 10, light irradiation): 0.26 (RRT: 0.95) % | Purity (%) (Day 10, light irradiation): 99.40% | Total impurities (%) (Day 10, light irradiation): 0.60% | Maximum single impurity (%) [1]: 0.24 (RRT: 0.95) % | Purity (%) [1]: 99.50% | Total impurities (%) [1]: 0.50% | Purity compared with day 0 (in words) (light irradiation): slightly reduced | Purity compared with day 0 (in words) (other conditions (60° C., humidity 92.5%)): stable

CC(C)(C)c1nc[nH]c1/C=c1\[nH]c(=O)/c(=C/C=C/c2cccc(F)c2)[nH]c1=O [Crude product, (3Z,6Z)-3-[((E)-3-(5-tert-butyl)-1H-imidazolyl-4-yl)methylene]-6-((E)-3-(3-fluorophenyl)-2-propenylene)piperazine-2,5-dione]
Purity compared with crystal form B under the same conditions (in words) (60° C., day 5 and day 10): lower than that of the crystal form B | Content (%) (crude product, 40° C. Day 5): 99.08% | Maximum single impurity (%) (crude product, 40° C. Day 5): 0.25(RRT: 0.95) % | Content (%) (crude product, 40° C. Day 10): 98.68% | Maximum single impurity (%) (crude product, 40° C. Day 10): 0.50(RRT: 0.95) % | Content (%) (crude product, 60° C. Day 5): 96.89% | Maximum single impurity (%) (crude product, 60° C. Day 5): 1.14(RRT: 0.91) % | Content (%) (crude product, 60° C. Day 10): 95.27% | Maximum single impurity (%) (crude product, 60° C. Day 10): 1.88(RRT: 0.91) % | Content (%) (crude product, Day 0): 99.49% | Maximum single impurity (%) (crude product, Day 0): 0.24(RRT: 0.95) %

Source: patent publication US11192882B2, “Crystal form of small molecule immune compound, preparation method thereof and pharmaceutical composition containing the same” (SHENZHEN NEPTUNUS PHARMACEUTICAL RESEARCH INSTITUTE CO., …, priority 2018, dated 2021)
